For this data set, the system named is CCRIS mutagenicity, Ames/micronucleus/aberration tests. Nature of the data set: CCRIS mutagenicity studies.
Setting [1] is: Test System: AMES SALMONELLA TYPHIMURIUM, Strain/Indicator: TA100, Metabolic Activation: NONE, Method: STANDARD PLATE.
Setting [2] is: Test System: AMES SALMONELLA TYPHIMURIUM, Strain/Indicator: TA1535, Metabolic Activation: NONE, Method: STANDARD PLATE.

The record followed here is PubChem BioAssay AID1259407 (Chemical Carcinogenesis Research Information System (CCRIS), 2018).

Activity calls are given as the source filed them. How the calls were made is not given here.

With `CC1=NN(c2ccccc2)C(=O)C1`, the mutagenic call was “inactive; negative” (Test System: AMES SALMONELLA TYPHIMURIUM, Strain/Indicator: TA98, Metabolic Activation: HAMSTER, LIVER, S-9, AROCLOR 1254 (10%), Method: PREINCUBATION); “inactive; negative” (Test System: AMES SALMONELLA TYPHIMURIUM, Strain/Indicator: TA98, Metabolic Activation: NONE, Method: PREINCUBATION); “inactive; negative” (Test System: AMES SALMONELLA TYPHIMURIUM, Strain/Indicator: TA98, Metabolic Activation: RAT, LIVER, S-9, AROCLOR 1254 (10%), Method: PREINCUBATION); “inactive; negative” (Test System: AMES SALMONELLA TYPHIMURIUM, Strain/Indicator: TA100, Metabolic Activation: HAMSTER, LIVER, S-9, AROCLOR 1254 (10%), Method: PREINCUBATION); “inactive; negative” (Test System: AMES SALMONELLA TYPHIMURIUM, Strain/Indicator: TA100, Metabolic Activation: NONE, Method: PREINCUBATION); “inactive; negative” (Test System: AMES SALMONELLA TYPHIMURIUM, Strain/Indicator: TA100, Metabolic Activation: RAT, LIVER, S-9, AROCLOR 1254 (10%), Method: PREINCUBATION). Further, the mutagenic call reads like this: (Test System: AMES SALMONELLA TYPHIMURIUM, Strain/Indicator: TA1535, Metabolic Activation: HAMSTER, LIVER, S-9, AROCLOR 1254 (10%), Method: PREINCUBATION) “inactive; negative”; (Test System: AMES SALMONELLA TYPHIMURIUM, Strain/Indicator: TA1535, Metabolic Activation: NONE, Method: PREINCUBATION) “inactive; negative”; (Test System: AMES SALMONELLA TYPHIMURIUM, Strain/Indicator: TA1535, Metabolic Activation: RAT, LIVER, S-9, AROCLOR 1254 (10%), Method: PREINCUBATION) “inactive; negative”; (Test System: AMES SALMONELLA TYPHIMURIUM, Strain/Indicator: TA1537, Metabolic Activation: HAMSTER, LIVER, S-9, AROCLOR 1254 (10%), Method: PREINCUBATION) “inactive; negative”; (Test System: AMES SALMONELLA TYPHIMURIUM, Strain/Indicator: TA1537, Metabolic Activation: NONE, Method: PREINCUBATION) “inactive; negative”; (Test System: AMES SALMONELLA TYPHIMURIUM, Strain/Indicator: TA1537, Metabolic Activation: RAT, LIVER, S-9, AROCLOR 1254 (10%), Method: PREINCUBATION) “inactive; negative”. The mutagenic call by setting is: (Test System: Ames Salmonella typhimurium, Strain/Indicator: TA98, Metabolic Activation: None, Method: Preincubation) “inactive; negative”; (Test System: Ames Salmonella typhimurium, Strain/Indicator: TA98, Metabolic Activation: Rat, Liver, S-9, Phenobarbital and 5,6-benzoflavone, Method: Preincubation) “inactive; negative”; (Test System: Ames Salmonella typhimurium, Strain/Indicator: TA100, Metabolic Activation: None, Method: Preincubation) “inactive; negative”; (Test System: Ames Salmonella typhimurium, Strain/Indicator: TA100, Metabolic Activation: Rat, Liver, S-9, Phenobarbital and 5,6-benzoflavone, Method: Preincubation) “inactive; negative”; (Test System: Ames Salmonella typhimurium, Strain/Indicator: TA1535, Metabolic Activation: None, Method: Preincubation) “inactive; negative”; (Test System: Ames Salmonella typhimurium, Strain/Indicator: TA1535, Metabolic Activation: Rat, Liver, S-9, Phenobarbital and 5,6-benzoflavone, Method: Preincubation) “inactive; negative”. Further, the mutagenic call is “inactive; negative” (Test System: Ames Salmonella typhimurium, Strain/Indicator: TA1537, Metabolic Activation: None, Method: Preincubation); “inactive; negative” (Test System: Ames Salmonella typhimurium, Strain/Indicator: TA1537, Metabolic Activation: Rat, Liver, S-9, Phenobarbital and 5,6-benzoflavone, Method: Preincubation); “inactive; negative” (Test System: E. COLI, Strain/Indicator: WP2 UVRA, Metabolic Activation: HAMSTER, LIVER, S-9, AROCLOR 1254, Method: STANDARD PLATE); “inactive; negative” (Test System: E. COLI, Strain/Indicator: WP2 UVRA, Metabolic Activation: HAMSTER, LIVER, S-9, Method: STANDARD PLATE); “inactive; negative” (Test System: E. COLI, Strain/Indicator: WP2 UVRA, Metabolic Activation: MOUSE, LIVER, S-9, AROCLOR 1254, Method: STANDARD PLATE); “inactive; negative” (Test System: E. COLI, Strain/Indicator: WP2 UVRA, Metabolic Activation: MOUSE, LIVER, S-9, Method: STANDARD PLATE). Also, the mutagenic call (Test System: E. COLI, Strain/Indicator: WP2 UVRA, Metabolic Activation: NONE, Method: STANDARD PLATE) is “inactive; negative”; the mutagenic call (Test System: E. COLI, Strain/Indicator: WP2 UVRA, Metabolic Activation: RAT, LIVER, S-9, AROCLOR 1254, Method: STANDARD PLATE) was “inactive; negative”; the mutagenic call (Test System: E. COLI, Strain/Indicator: WP2 UVRA, Metabolic Activation: RAT, LIVER, S-9, Method: STANDARD PLATE) is “inactive; negative”; the mutagenic call (Test System: E. coli, Strain/Indicator: WP2uvrA/pKM101, Metabolic Activation: None, Method: Preincubation) is “inactive; negative”; the mutagenic call (Test System: E. coli, Strain/Indicator: WP2uvrA/pKM101, Metabolic Activation: Rat, Liver, S-9, Phenobarbital and 5,6-benzoflavone, Method: Preincubation) is “inactive; negative”; the mutagenic call (Test System: MOUSE LYMPHOMA, Strain/Indicator: L5178Y (TK+/TK-), Metabolic Activation: NONE, Method: SUSPENSION/PLATE) is “inactive; negative”. The mutagenic call (Test System: MOUSE LYMPHOMA, Strain/Indicator: L5178Y (TK+/TK-), Metabolic Activation: RAT, LIVER, S-9, AROCLOR 1254, Method: SUSPENSION/PLATE) was “active; positive”.
Regarding `c1ccc2c(COCC3CO3)cccc2c1` (stereo not drawn), the mutagenic call by setting is: under setting [1], “active; positive”; under setting [2], “active; positive”.
Take `CN(C)c1ccc(C(=C2C=CC(=[N+](C)C)C=C2)c2ccc(N(C)C)cc2)cc1`: the mutagenic call is “inactive; negative” (Test System: AMES SALMONELLA TYPHIMURIUM, Strain/Indicator: TA97, Metabolic Activation: NONE, Method: STANDARD PLATE); “inactive; negative” (Test System: AMES SALMONELLA TYPHIMURIUM, Strain/Indicator: TA98, Metabolic Activation: NONE, Method: STANDARD PLATE); “inactive; negative” (Test System: AMES SALMONELLA TYPHIMURIUM, Strain/Indicator: TA98, Metabolic Activation: RAT, LIVER, S-9, AROCLOR 1254, Method: STANDARD PLATE); “inactive; negative” under setting [1]; “inactive; negative” (Test System: AMES SALMONELLA TYPHIMURIUM, Strain/Indicator: TA100, Metabolic Activation: RAT, LIVER, S-9, AROCLOR 1254, Method: STANDARD PLATE); “inactive; negative” (Test System: AMES SALMONELLA TYPHIMURIUM, Strain/Indicator: TA104, Metabolic Activation: NONE, Method: STANDARD PLATE). Also, the mutagenic call runs as follows: under setting [2], “inactive; negative”; (Test System: AMES SALMONELLA TYPHIMURIUM, Strain/Indicator: TA1535, Metabolic Activation: RAT, LIVER, S-9, AROCLOR 1254, Method: STANDARD PLATE) “inactive; negative”; (Test System: CHINESE HAMSTER OVARY, Strain/Indicator: CHO-AS52 (GPT)/6-THIOGUANINE, Metabolic Activation: RAT, LIVER, S-9, AROCLOR 1254) “inactive; negative”; (Test System: CHINESE HAMSTER OVARY, Strain/Indicator: CHO-K1-BH4 (HPRT)/6-THIOGUANINE, Metabolic Activation: NONE) “inactive; negative”; (Test System: CHINESE HAMSTER OVARY, Strain/Indicator: CHO-K1-BH4 (HPRT)/6-THIOGUANINE, Metabolic Activation: RAT, LIVER, S-9, AROCLOR 1254) “inactive; negative”; (Test System: E. COLI, Strain/Indicator: DG1669, Metabolic Activation: NONE, Method: STANDARD PLATE) “active; positive”. Where the note is “Test System: E. COLI, Strain/Indicator: DG1669, Metabolic Activation: RAT, LIVER, S-9, AROCLOR 1254, Method: STANDARD PLATE”, the mutagenic call is “active; positive”.
As to `Nc1cc([N+](=O)[O-])c(C(=O)O)c([N+](=O)[O-])c1`, the mutagenic call was “inactive; negative” (End Point: In vitro chromosomal aberrations, Test System: V79 Chinese hamster fibroblasts, Metabolic Activation: None); “active; positive” (End Point: In vitro micronucleus, Test System: HepG2 human hepatoma cells, Metabolic Activation: None); “active; positive” (Test System: Ames Salmonella typhimurium, Strain/Indicator: TA98, Metabolic Activation: None, Method: Standard plate); “active; positive” (Test System: Ames Salmonella typhimurium, Strain/Indicator: TA98, Metabolic Activation: Rat, Liver, S-9, Method: Standard plate); “active; positive, ta98nr is the nitroreductase-deficient derivative of ta98” (Test System: Ames Salmonella typhimurium, Strain/Indicator: TA98NR, Metabolic Activation: None, Method: Standard plate); “active; positive” (Test System: Ames Salmonella typhimurium, Strain/Indicator: TA100, Metabolic Activation: None, Method: Standard plate). The mutagenic call (Test System: Ames Salmonella typhimurium, Strain/Indicator: TA100, Metabolic Activation: Rat, Liver, S-9, Method: Standard plate) was “active; positive”.
